Experimental data: patent US20150105252A1, “SUBSTITUTED PYRAZOLES AS HERBICIDES” (E I DU PONT DE NEMOURS AND COMPANY, priority 2013, published 2015)

Key:
corn [1] = assay: Test A preemergence; type: in vivo, Zea mays
Outline: (§1)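 Visual injury ratings, 0 = no effect to 100 = complete control, taken about 10 days after treatment against untreated controls. Test chemicals, in a non-phytotoxic surfactant-containing solvent, were sprayed onto soil preemergence or onto one- to two-leaf plants (2–10 cm) postemergence, in loam–sand soil under greenhouse conditions.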

rice = assay: Test B flood; type: in vivo, Oryza sativa; conditions: 250 g ai/ha, visual rating on 0 to 100 scale (0 no effect, 100 complete control), 13 to 15 days
Outline: (§2)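 Flooded-pot test: compound dosed into 3 cm of standing water above soil when plants had two leaves. Visual control ratings (0–100) versus untreated plants after 13–15 d.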

morningglory = assay: Test A preemergence; type: in vivo, Ipomoea spp.
Outline: as §1

corn [2] = assay: Test C preemergence; type: in vivo, Zea mays
Description: (§3) Seeds of plant species selected from blackgrass (Alopecurus myosuroides), ryegrass, Italian (Italian ryegrass, Lolium multiflorum), wheat (winter wheat, Triticum aestivum), galium (catchweed bedstraw, Galium aparine), corn (Zea mays), crabgrass, large (large crabgrass, Digitaria sanguinalis), foxtail, giant (giant foxtail, Setaria faberii), johnsongrass (Sorghum halepense), lambsquarters (Chenopodium album), morningglory (Ipomoea coccinea), nutsedge, yellow (yellow nutsedge, Cyperus esculentus), pigweed (redroot pigweed, Amaranthus retroflexus), ragweed (common ragweed, Ambrosia elation), soybean (Glycine max), barnyardgrass (Echinochloa crus-galli), oilseed rape (Brassica napus), waterhemp (common waterhemp, Amaranthus rudis), oat, wild (wild oat, Avena fatua), kochia (Kochia scoparia), Surinam grass (Brachiaria decumbens), foxtail, green (green foxtail, Setaria viridis), goosegrass (Eleusine indica), bromegrass, downy (downy bromegrass, Bromus tectorum), nightshade (eastern black nightshade, Solanum ptycanthum), cocklebur (common cocklebur, Xanthium strumarium), cupgrass, woolly (woolly cupgrass, Eriochloa villosa), bermudagrass (Cynodon dactylon), sunflower, (common oilseed sunflower, Helianthus annuus), Russian thistle (Salsola kali), and velvetleaf (Abutilon theophrasti) were planted into a blend of loam soil and sand and treated preemergence with test chemicals formulated in a non-phytotoxic solvent mixture which included a surfactant.
(§4) At the same time, plants selected from these crop and weed species and also chickweed (common chickweed, Stellaria media), canarygrass (littleseed canarygrass, Phalaris minor), and deadnettle (henbit deadnettle, Lamium amplexicaule), were planted in pots containing Redi-Earth® planting medium (Scotts Company, 14111 Scottslawn Road, Marysville, Ohio 43041) comprising spaghnum peat moss, vermiculite, wetting agent and starter nutrients and treated with postemergence applications of test chemicals formulated in the same manner. Plants ranged in height from 2 to 18 cm (1- to 4-leaf stage) for postemergence treatments. Treated plants and controls were maintained in a greenhouse for 13 to 15 days, after which time all species were compared to controls and visually evaluated. Plant response ratings, summarized in Table C, are based on a scale of 0 to 100 where 0 is no effect and 100 is complete control. A dash (-) response means no test result.

foxtail, giant = assay: Test A postemergence; type: in vivo, Setaria faberii
Outline: as §1

crabgrass, large [3] = assay: Test C postemergence; type: in vivo, Digitaria sanguinalis; conditions: for Crabgrass, Large plant response rating: scale 0 to 100
Description: as §3, §4

crabgrass, large [4] = assay: Test A preemergence; type: in vivo, Digitaria sanguinalis
Outline: as §1

barnyardgrass [5] = assay: Test A postemergence; type: in vivo, Echinochloa crus-galli
Outline: as §1

velvetleaf = assay: Test A preemergence; type: in vivo, Abutilon theophrasti
Outline: as §1

barnyardgrass [6] = assay: Test B flood; type: in vivo, Echinochloa crus-galli; conditions: 250 g ai/ha, visual rating on 0 to 100 scale (0 no effect, 100 complete control), 13 to 15 days
Outline: as §2

oilseed rape [7] = assay: Test C postemergence; type: in vivo, Brassica napus; conditions: for Oilseed Rape plant response rating: scale 0 to 100
Description: as §3, §4

kochia = assay: Test C postemergence; type: in vivo, Kochia scoparia; conditions: for Kochia plant response rating: scale 0 to 100
Outline: (§5)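 Herbicidal effect is expressed as percent visual control (0–100) judged against untreated plants 13 to 15 days after treatment in the greenhouse. Preemergence pots contained seeds in a soil–sand blend; postemergence plants, 2–18 cm tall, grew in peat-based planting medium.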

galium = assay: Test C postemergence; type: in vivo, Galium aparine; conditions: for Galium plant response rating: scale 0 to 100
Outline: as §5

oilseed rape [8] = assay: Test C preemergence; type: in vivo, Brassica napus; conditions: preemergence
Outline: as §5

[9] = Preemergence, 500 g ai/ha, 0 to 100 scale, 0 no effect, 100 complete control
[10] = preemergence, 125 g ai/ha, visual injury, 0 to 100 scale, approx. 10 days
[11] = Postemergence, 500 g ai/ha, visual rating after approx. 10 days, 0 to 100 scale (0 no effect, 100 complete control)
[12] = postemergence, 125 g ai/ha, about 10 days, visual rating on 0 to 100 scale (0 no effect, 100 complete control)
[13] = postemergence, 125 g ai/ha, scale 0 to 100, 0 no effect, 100 complete control
[14] = preemergence, 125 g ai/ha, visual injury approx. 10 days after treatment
[15] = preemergence, 500 g ai/ha, visual injury after approx. 10 days, 0 to 100 scale (0 no effect, 100 complete control)
[16] = Postemergence, 500 g ai/ha, 0 to 100 scale (0 no effect, 100 complete control)

Which results are given for `CCCNC(=O)c1cc(CC)n(Cc2ccnc(C(F)(F)F)c2)n1` [Compound 75]?
Corn plant response rating (corn [1]; [9]): 90; Corn plant response rating (corn [1]; [10]): 80; Plant response rating, Rice (rice): 35; Morningglory plant response rating (morningglory; [9]): 90; Morningglory plant response rating (morningglory; [10]): 90; Plant response rating, Corn (corn [2]; Preemergence, 16 g ai/ha, scale 0 to 100): 10; Corn plant response rating (corn [2]; preemergence, 31 g ai/ha, scale 0 to 100 (0 no effect, 100 complete control), 13 to 15 days): 60; Plant response rating, Corn (corn [2]; preemergence, 62 g ai/ha, 13 to 15 days, scale 0 to 100, 0 = no effect, 100 = complete control): 98; Corn plant response rating (corn [2]; preemergence, 125 g ai/ha, scale 0 to 100, 0 is no effect, 100 is complete control): 100; Foxtail, Giant plant response rating (foxtail, giant; [11]): 100; Foxtail, Giant plant response rating (foxtail, giant; [12]): 90; Plant response rating (scale of 0 to 100), Crabgrass, Large (crabgrass, large [3]; Postemergence, 16 g ai/ha): 20; Crabgrass, Large plant response rating (crabgrass, large [3]; Postemergence, 31 g ai/ha): 20; Crabgrass, Large plant response rating (crabgrass, large [3]; postemergence, 62 g ai/ha): 25; Plant response rating, Crabgrass, Large (crabgrass, large [3]; [13]): 80; Crabgrass, Large plant response rating (crabgrass, large [4]; [9]): 100; Crabgrass, Large plant response rating (crabgrass, large [4]; [10]): 100; Barnyardgrass plant response rating (barnyardgrass [5]; Postemergence, 125 g ai/ha, 0 to 100 scale, 0 no effect, 100 complete control): 90; Barnyardgrass plant response rating (barnyardgrass [5]; [11]): 90; Velvetleaf plant response rating (velvetleaf; [9]): 100; Velvetleaf plant response rating (velvetleaf; [10]): 80; Plant response rating, Barnyardgrass (barnyardgrass [6]): 40; Plant response rating (scale of 0 to 100), Oilseed Rape (oilseed rape [7]; Postemergence, 16 g ai/ha): 20; Oilseed Rape plant response rating (oilseed rape [7]; Postemergence, 31 g ai/ha): 50; Oilseed Rape plant response rating (oilseed rape [7]; postemergence, 62 g ai/ha): 50; Plant response rating, Oilseed Rape (oilseed rape [7]; [13]): 60; Plant response rating (scale of 0 to 100), Kochia (kochia; Postemergence, 16 g ai/ha): 30; Kochia plant response rating (kochia; Postemergence, 31 g ai/ha): 60; Kochia plant response rating (kochia; postemergence, 62 g ai/ha): 60; Plant response rating, Kochia (kochia; [13]): 90; Plant response rating (scale of 0 to 100), Galium (galium; Postemergence, 16 g ai/ha): 50; Galium plant response rating (galium; Postemergence, 31 g ai/ha): 60; Galium plant response rating (galium; postemergence, 62 g ai/ha): 60; Plant response rating, Galium (galium; [13]): 65

What does the source list for `O=C(NCC(F)(F)F)c1cc(CCF)n(Cc2ccnc(C(F)(F)F)c2)n1` [Compound 175]?
Corn plant response rating (0 to 100 scale) (corn [1]; [14]): 50; Corn plant response rating (corn [1]; [15]): 80; Plant response rating, Rice (rice): 25; Morningglory plant response rating (0 to 100 scale) (morningglory; [14]): 100; Morningglory plant response rating (morningglory; [15]): 100; Corn plant response rating (corn [2]; preemergence, 31 g ai/ha, visual rating, scale 0 to 100 (0 no effect, 100 complete control), 13 to 15 days): 20; Corn plant response rating (corn [2]; preemergence, 62 g ai/ha, scale 0 to 100 (0 no effect, 100 complete control), 13 to 15 days): 30; Plant response rating, Corn (corn [2]; preemergence, 125 g ai/ha, 13 to 15 days, scale 0 to 100, 0 = no effect, 100 = complete control): 85; Corn plant response rating (corn [2]; preemergence, 250 g ai/ha, scale 0 to 100, 0 is no effect, 100 is complete control): 90; Foxtail, Giant plant response rating (foxtail, giant; [16]): 90; Foxtail, Giant plant response rating (foxtail, giant; [12]): 80; Crabgrass, Large plant response rating (0 to 100 scale) (crabgrass, large [4]; [14]): 100; Crabgrass, Large plant response rating (crabgrass, large [4]; [15]): 100; Barnyardgrass plant response rating (barnyardgrass [5]; [16]): 90; Barnyardgrass plant response rating (barnyardgrass [5]; [12]): 70; Velvetleaf plant response rating (0 to 100 scale) (velvetleaf; [14]): 40; Velvetleaf plant response rating (velvetleaf; [15]): 100; Plant response rating, Barnyardgrass (barnyardgrass [6]): 35; Oilseed Rape plant response rating (oilseed rape [8]; 31 g ai/ha, visual rating, scale 0 to 100 (0 no effect, 100 complete control), 13 to 15 days): 98; Oilseed Rape plant response rating (oilseed rape [8]; 62 g ai/ha, scale 0 to 100 (0 no effect, 100 complete control), 13 to 15 days): 100; Plant response rating, Oilseed Rape (oilseed rape [8]; 125 g ai/ha, 13 to 15 days, scale 0 to 100, 0 = no effect, 100 = complete control): 100; Oilseed Rape plant response rating (oilseed rape [8]; 250 g ai/ha, scale 0 to 100, 0 is no effect, 100 is complete control): 100
